Results reported in patent US12479830B2, “Homopiperazinyl and homopiperidinyl quinazolin-4(3H)-one derivatives having multimodal activity against pain” (ESTEVE PHARMACEUTICALS, S.A., priority 2019, dated 2025).

Columns and labels:
[1] = target: Human α2δ-1 subunit of Cav2.2 calcium channel (Homo sapiens, UniProt P54289); assay: Human α2δ-1 subunit of Cav2.2 calcium channel assay ([3H]-gabapentin binding); conditions: binding to the α2δ-1 subunit of voltage-gated calcium channels, expressed as Ki class; + also covers inhibition between 1% and 50%
Sequence of Human α2δ-1 subunit of Cav2.2 calcium channel (P54289 25-1103): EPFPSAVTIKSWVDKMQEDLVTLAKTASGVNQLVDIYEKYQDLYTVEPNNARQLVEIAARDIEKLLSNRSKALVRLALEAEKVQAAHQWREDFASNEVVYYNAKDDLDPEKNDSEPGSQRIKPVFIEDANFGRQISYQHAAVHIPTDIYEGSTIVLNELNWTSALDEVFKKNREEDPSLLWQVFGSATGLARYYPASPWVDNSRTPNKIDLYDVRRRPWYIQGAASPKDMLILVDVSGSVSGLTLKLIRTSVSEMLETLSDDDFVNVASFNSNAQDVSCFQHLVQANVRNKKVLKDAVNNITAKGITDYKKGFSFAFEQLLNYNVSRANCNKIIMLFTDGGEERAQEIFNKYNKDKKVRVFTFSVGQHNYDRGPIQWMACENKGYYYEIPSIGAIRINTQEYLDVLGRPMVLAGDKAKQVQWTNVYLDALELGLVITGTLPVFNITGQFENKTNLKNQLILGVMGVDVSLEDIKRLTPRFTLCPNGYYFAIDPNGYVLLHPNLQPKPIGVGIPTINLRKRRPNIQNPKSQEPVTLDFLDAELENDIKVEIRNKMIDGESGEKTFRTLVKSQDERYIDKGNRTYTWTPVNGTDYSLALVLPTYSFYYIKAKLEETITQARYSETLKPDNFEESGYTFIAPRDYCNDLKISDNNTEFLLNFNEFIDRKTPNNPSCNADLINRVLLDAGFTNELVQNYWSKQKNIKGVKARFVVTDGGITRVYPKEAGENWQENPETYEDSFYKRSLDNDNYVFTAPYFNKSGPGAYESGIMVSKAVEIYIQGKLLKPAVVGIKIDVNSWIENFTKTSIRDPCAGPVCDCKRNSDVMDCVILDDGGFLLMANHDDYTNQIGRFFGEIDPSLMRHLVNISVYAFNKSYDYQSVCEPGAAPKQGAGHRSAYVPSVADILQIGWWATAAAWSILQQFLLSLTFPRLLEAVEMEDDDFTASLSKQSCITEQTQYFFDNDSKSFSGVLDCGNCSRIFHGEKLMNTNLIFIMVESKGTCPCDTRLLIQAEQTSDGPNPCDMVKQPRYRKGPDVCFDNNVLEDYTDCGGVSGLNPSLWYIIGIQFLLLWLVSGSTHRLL
In short: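 Human α2δ-1 enriched membranes (2.5 μg) incubated 60 min at 27° C. with 15 nM [3H]-gabapentin in 10 mM Hepes-KOH pH 7.4; non-specific binding with 10 μM pregabalin. Filtration binding; % inhibition at 1 or 10 μM, or Ki from five concentrations.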

Human σ1 receptor = target: T1, Human σ1 receptor (Homo sapiens, UniProt Q99720); assay: Human σ1 receptor radioligand assay ([3H](+)-pentazocine binding); conditions: binding to the σ1 receptor, expressed as Ki class; + also covers inhibition between 1% and 50%
T1 construct: expressed in transfected cells; host or cells: HEK-293
T1 sequence (Q99720 whole entry): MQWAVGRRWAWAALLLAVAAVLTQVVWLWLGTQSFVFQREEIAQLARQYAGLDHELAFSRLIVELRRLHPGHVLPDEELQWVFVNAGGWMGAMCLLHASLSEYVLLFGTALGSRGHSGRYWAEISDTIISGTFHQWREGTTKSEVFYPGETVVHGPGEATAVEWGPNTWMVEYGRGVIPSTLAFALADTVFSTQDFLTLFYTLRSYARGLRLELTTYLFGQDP
In short: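 Membranes (7 μg) were incubated with 5 nM [3H](+)-pentazocine in 50 mM Tris-HCl pH 8 for 120 min at 37° C. Non-specific binding was defined with 10 μM haloperidol. Values are % inhibition at 1 or 10 μM or Ki from five concentrations, read by filtration and scintillation counting.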

SMILES | Ki [1] [nM] | Ki (Human σ1 receptor) [nM]
CCC[C@H](c1nc2ncc(Br)cc2c(=O)n1CC)N1CCCN(CC)CC1 [Example 176, 6-bromo-3-ethyl-2-(1-(4-ethyl-1,4-diazepan-1-yl)butyl)pyrido[2,3-d]pyrimidin-4(3H)-one] | > 5000 | > 1000
CCCC(c1nc2ncc(Br)cc2c(=O)n1CC)N1CCCNCC1 (stereo not shown) [Example 177, 2-(1-(1,4-diazepan-1-yl)butyl)-6-bromo-3-ethylpyrido[2,3-d]pyrimidin-4(3H)-one] | < 500 | > 1000
CCCC(c1nc2ncccc2c(=O)n1CC)N1CCCN(CC)CC1 (stereo not shown) [Example 178, 3-ethyl-2-(1-(4-ethyl-1,4-diazepan-1-yl)butyl)pyrido[2,3-d]pyrimidin-4(3H)-one] | < 500 | > 1000
CCCC(c1nc2ncccc2c(=O)n1CC)N1CCCNCC1 (stereo not shown) [Example 179, 2-(1-(1,4-diazepan-1-yl)butyl)-3-ethylpyrido[2,3-d]pyrimidin-4(3H)-one] | 500 to 5000 | > 1000
CCC[C@H](c1nc2ncc(Br)cc2c(=O)n1CC)N1CCN(C)C[C@@H](C)C1 [Example 186, 6-bromo-2-((R)-1-((R)-4,6-dimethyl-1,4-diazepan-1-yl)butyl)-3-ethylpyrido[2,3-d]pyrimidin-4(3H)-one] | < 500 | > 1000
CCC[C@H](c1nc2ncc(Br)cc2c(=O)n1CC)N1CCN(C)C[C@H](C)C1 [Example 187, 6-bromo-2-((R)-1-((S)-4,6-dimethyl-1,4-diazepan-1-yl)butyl)-3-ethylpyrido[2,3-d]pyrimidin-4(3H)-one] | < 500 | > 1000
CCC[C@@H](c1nc2ncc(Br)cc2c(=O)n1CC)N1CCN(C)C[C@H](C)C1 [Example 188, 6-bromo-2-((S)-1-((S)-4,6-dimethyl-1,4-diazepan-1-yl)butyl)-3-ethylpyrido[2,3-d]pyrimidin-4(3H)-one] | > 5000 | > 1000
CCC[C@@H](c1nc2ncc(Br)cc2c(=O)n1CC)N1CCN(C)C[C@@H](C)C1 [Example 189, 6-bromo-2-((S)-1-((R)-4,6-dimethyl-1,4-diazepan-1-yl)butyl)-3-ethylpyrido[2,3-d]pyrimidin-4(3H)-one] | > 5000 | > 1000
CCCC(c1nc2nc(C(F)(F)F)ccc2c(=O)n1CC)N1CCCN(C)CC1 (stereo not shown) [Example 190, 3-ethyl-2-(1-(4-methyl-1,4-diazepan-1-yl)butyl)-7-(trifluoromethyl)pyrido[2,3-d]pyrimidin-4(3H)-one] | 500 to 5000 | > 1000
CCCC(c1nc2cnc(C(F)(F)F)cc2c(=O)n1CC)N1CCCN(C)CC1 (stereo not shown) [Example 192, 3-ethyl-2-(1-(4-methyl-1,4-diazepan-1-yl)butyl)-6-(trifluoromethyl)pyrido[3,4-d]pyrimidin-4(3H)-one] | < 500 | > 1000
CCC[C@H](c1nc2ncc(Br)cc2c(=O)n1CC)N1CCNC[C@H](C)C1 [Example 197, 6-bormo-3-ethyl-2-((R)-1-((S)-6-methyl-1,4-diazepan-1-yl)butyl)pyrido[2,3-d]pyrimidin-4(3H)-one] | < 500 | > 1000
CCC[C@@H](c1nc2ncc(Br)cc2c(=O)n1CC)N1CCNC[C@@H](C)C1 [Example 198, 6-bromo-3-ethyl-2-((S)-1-((R)-6-methyl-1,4-diazepan-1-yl)butyl)pyrido[2,3-d]pyrimidin-4(3H)-one] | > 5000 | > 1000
CCC[C@H](c1nc2ncc(Br)cc2c(=O)n1CC)N1CCNC[C@@H](C)C1 [Example 199, 6-bromo-3-ethyl-2-((R)-1-((R)-6-methyl-1,4-diazepan-1-yl)butyl)pyrido[2,3-d]pyrimidin-4(3H)-one] | < 500 | > 1000
CCC[C@@H](c1nc2ncc(Br)cc2c(=O)n1CC)N1CCNC[C@H](C)C1 [Example 200, 6-bromo-3-ethyl-2-((S)-1-((S)-6-methyl-1,4-diazepan-1-yl)butyl)pyrido[2,3-d]pyrimidin-4(3H)-one] | > 5000 | > 1000

Now from value to molecule:

Ki [1] [nM] | Ki (Human σ1 receptor) [nM] | SMILES
< 500 | > 1000 | CCCC(c1nc2ncc(Br)cc2c(=O)n1CC)N1CCCN(C)CC1 (stereo not shown) [Example 175, 6-Bromo-3-ethyl-2-(1-(4-methyl-1,4-diazepan-1-yl)butyl)pyrido[2,3-d]pyrimidin-4(3H)-one]
< 500 | > 1000 | CCCC(c1nc2ncccc2c(=O)n1CC)N1CCCN(C)CC1 (stereo not shown) [Example 180, 3-ethyl-2-(1-(4-methyl-1,4-diazepan-1-yl)butyl)pyrido[2,3-d]pyrimidin-4(3H)-one]
< 500 | > 1000 | CCCC(c1nc2ncc(Br)cc2c(=O)n1CCC)N1CCCN(C)CC1 (stereo not shown) [Example 181, 6-bromo-2-(1-(4-methyl-1,4-diazepan-1-yl)butyl)-3-propylpyrido[2,3-d]pyrimidin-4(3H)-one]
< 500 | > 1000 | CCCC(c1nc2ncc(F)cc2c(=O)n1CC)N1CCCN(C)CC1 (stereo not shown) [Example 182]
< 500 | > 1000 | CCCC(c1nc2ncc(Br)cc2c(=O)n1CC1CC1)N1CCCN(C)CC1 (stereo not shown) [Example 183, 6-bromo-3-(cyclopropylmethyl)-2-(1-(4-methyl-1,4-diazepan-1-yl)butyl)pyrido[2,3-d]pyrimidin-4(3H)-one]
< 500 | > 1000 | CCCC(c1nc2ncc(F)cc2c(=O)n1CC1CC1)N1CCCN(C)CC1 (stereo not shown) [Example 184, 3-(cyclopropylmethyl)-6-fluoro-2-(1-(4-methyl-1,4-diazepan-1-yl)butyl)pyrido[2,3-d]pyrimidin-4(3H)-one]
< 500 | > 1000 | CCCC(c1nc2ncc(F)cc2c(=O)n1CC1CC1)N1CCCN(CC)CC1 (stereo not shown) [Example 185, 3-(cyclopropylmethyl)-2-(1-(4-ethyl-1,4-diazepan-1-yl)butyl)-6-fluoropyrido[2,3-d]pyrimidin-4(3H)-one]
< 500 | > 1000 | CCCC(c1nc2cnc(OC)cc2c(=O)n1CC)N1CCCN(C)CC1 (stereo not shown) [Example 191, 3-ethyl-6-methoxy-2-(1-(4-methyl-1,4-diazepan-1-yl)butyl)pyrido[3,4-d]pyrimidin-4(3H)-one]
> 5000 | > 1000 | CCC[C@@H](c1nc2ncc(F)cc2c(=O)n1CC1CC1)N1CCN[C@H](C)CC1 [Example 193, 3-(cyclopropylmethyl)-6-fluoro-2-((S)-1-((R)-5-methyl-1,4-diazepan-1-yl)butyl)pyrido[2,3-d]pyrimidin-4(3H)-one]
< 500 | > 1000 | CCC[C@H](c1nc2ncc(F)cc2c(=O)n1CC1CC1)N1CCN[C@@H](C)CC1 [Example 195, 3-(cyclopropylmethyl)-6-fluoro-2-((R)-1-((S)-5-methyl-1,4-diazepan-1-yl)butyl)pyrido[2,3-d]pyrimidin-4(3H)-one]
< 500 | > 1000 | CCC[C@H](c1nc2ncc(F)cc2c(=O)n1CC1CC1)N1CCN[C@H](C)CC1 [Example 196, 3-(cyclopropylmethyl)-6-fluoro-2-((R)-1-((R)-5-methyl-1,4-diazepan-1-yl)butyl)pyrido[2,3-d]pyrimidin-4(3H)-one]
> 5000 | > 1000 | CCC[C@@H](c1nc2ncc(F)cc2c(=O)n1CC)N1CCCN(C)CC1 [Example 202, (S)-3-ethyl-6-fluoro-2-(1-(4-methyl-1,4-diazepan-1-yl)butyl)pyrido[2,3-d]pyrimidin-4(3H)-one]
